US10023612B2, “Method of treating endometriosis” (ValiRx PLC, priority 2011, dated 2018)
Values joined by “and” are separate entries in the source; they are usually repeats but may differ in a detail not shown here. Equal entries are not always repeated.

How the values were obtained:
[1] = system: endometriosis lesion; experiment: First study: in-vivo model of endometriosis, tissue from K-rasV12/Ah-Cre/ROSA26R-LacZ donor mice in wild-type animals; settings: four treated animals, injected for 21 days
Procedure: In a first study, a total of 4 treatment and 5 control animals were generated in a novel in-vivo model of endometriosis (Research Horizons, University of Cambridge, 2009 Issue 8, GB 0715635.9) K-rasV12/Ah-Cre transgenic mice were crossed with Rosa26R mice to generate KrasV12+/−/Ah-Cre+/−/ROSA26R-LacZ+/− transgenic mice. The F1 offspring were inbred to generate F2 K-rasV12+/−/Ah-Cre+/+/ROSA26R-LacZ+/+ transgenic mice. The presence of the transgenes was determined by PCR using gene specific primers for K-ras, Cre and Rosa26R-LacZ. Tissue was collected from donor animals previously treated with hormones etc. and was divided between wild-type animals that were then injected with drug or vehicle for 21 days.

[2] = mouse, in vivo
Procedure: 8-10 week old, female nulliparous C57BL6 mice were acclimatised for 1 week. A group of 10 female animals were dosed with 10 ng of peptide injected subcutaneously 3 days prior to experimentation with a control group of 10 animals treated with vehicle alone.
5 male C57BL6 animals were introduced and the females checked daily for mucous plug (before 9 a.m.). When mucous plug was recorded the females were evaluated for:
a) Length of possible pregnancy (days)
c) Anomalies in offspring

[3] = system: endometriosis lesions (plugs of uterine tissue); experiment: Dose ranging prevention study, transplanted plugs of uterine tissue; assay type: in vivo, C57BL6 mice; settings: for Lesion burden Ave / Lesion growth Ave: average per mouse; for Lesion burden Mean / Lesion establishment Mean / Lesion growth Mean: group mean; for Lesion burden P1 / Lesion burden P2 / Lesion burden P3 / Lesion burden P4 / Lesion burden P5 / Lesion burden P6 / Lesion growth M1 / Lesion growth M2 / Lesion growth P1 / Lesion growth P2 / Lesion growth P3 / Lesion growth P4 / Lesion establishment M1 / Lesion establishment M2 / Lesion establishment P1 / Lesion establishment P2 / Lesion establishment P3 / Lesion establishment P4: individual mouse; for Lesion establishment M1 / Lesion establishment M2 / Lesion establishment P1 / Lesion establishment P2 / Lesion establishment P3 / Lesion establishment P4: 1 or 0; for Lesion establishment Ave: per mouse
[4] = mouse, in vivo; remark: listed apart in the source
From the text: Offspring from dosed females were mated and checked for fertility to determine possible inheritable effects.

fertility of mice [2]: does not affect their fertility
fertility of offspring from dosed females [4]: no abnormalities noted
Substance: Ac-PPPHPHARIK-NH2 [ValiRx1, Ac-Pro-Pro-Pro-His-Pro-His-Ala-Arg-Ile-Lys-NH2]
absence of lesion following treatment [1]: three showed complete absence of lesion
lesion growth following treatment vs control group ([3]; 1 ng, 10 ng or 100 ng s.c. daily): significantly reduced
Lesion burden Ave ([3]; 1 ng/mouse s.c. daily): 1.1 mm^2 and 1.9 mm^2 and 12.1 mm^2 and 6.5 mm^2 and 8.5 mm^2
Lesion growth Ave ([3]; 1 ng/mouse s.c. daily): 6.5 mm^2 and 8.5 mm^2 and 1.3 mm^2 and 1.9 mm^2 and 12.1 mm^2
Lesion burden Mean ([3]; 1 ng/mouse s.c. daily): 6.02 mm^2
Lesion establishment Mean ([3]; 1 ng/mouse s.c. daily): 96.67%
Lesion growth Mean ([3]; 1 ng/mouse s.c. daily): 6.23 mm^2
Lesion burden P1 ([3]; 1 ng/mouse s.c. daily): 1.8 mm^2 and 1.1 mm^2 and 4.2 mm^2 and 15.1 mm^2 and 10.2 mm^2
Lesion burden P2 ([3]; 1 ng/mouse s.c. daily): 0.2 mm^2 and 3.1 mm^2 and 16.7 mm^2 and 5.7 mm^2 and 10.6 mm^2
Lesion burden P3 ([3]; 1 ng/mouse s.c. daily): 0.1 mm^2 and 2.5 mm^2 and 15.2 mm^2 and 8.0 mm^2 and 16.6 mm^2
Lesion burden P4 ([3]; 1 ng/mouse s.c. daily): 0.0 mm^2 and 0.2 mm^2 and 17.0 mm^2 and 3.8 mm^2 (2×)
Lesion burden P5 ([3]; 1 ng/mouse s.c. daily): 3.5 mm^2 and 1.1 mm^2 and 11.2 mm^2 and 0.2 mm^2 and 0.5 mm^2
Lesion burden P6 ([3]; 1 ng/mouse s.c. daily): 1.1 mm^2 and 3.5 mm^2 and 8.0 mm^2 and 6.2 mm^2 and 9.4 mm^2
Lesion growth M1 ([3]; 1 ng/mouse s.c. daily): 0.196 mm^2 and 0.503 mm^2 and 3.456 mm^2 and 1.131 mm^2 and 11.2 mm^2
Lesion growth M2 ([3]; 1 ng/mouse s.c. daily): 6.158 mm^2 and 9.425 mm^2 and 1.131 mm^2 and 3.464 mm^2 and 8.042 mm^2
Lesion growth P1 ([3]; 1 ng/mouse s.c. daily): 1.131 mm^2 and 4.155 mm^2 and 15.1 mm^2 and 10.18 mm^2 and 1.767 mm^2
Lesion growth P2 ([3]; 1 ng/mouse s.c. daily): 3.142 mm^2 and 16.74 mm^2 and 5.694 mm^2 and 10.56 mm^2 and 0.196 mm^2
Lesion growth P3 ([3]; 1 ng/mouse s.c. daily): 2.545 mm^2 and 15.21 mm^2 and 8.042 mm^2 and 16.62 mm^2 and 0.126 mm^2
Lesion growth P4 ([3]; 1 ng/mouse s.c. daily): 3.801 mm^2 (2×) and 0.196 mm^2 and 16.96 mm^2
Lesion establishment M1 ([3]; 1 ng/mouse s.c. daily): 1
Lesion establishment M2 ([3]; 1 ng/mouse s.c. daily): 1
Lesion establishment P1 ([3]; 1 ng/mouse s.c. daily): 1
Lesion establishment P2 ([3]; 1 ng/mouse s.c. daily): 1
Lesion establishment P3 ([3]; 1 ng/mouse s.c. daily): 1
Lesion establishment P4 ([3]; 1 ng/mouse s.c. daily): 1 (4×) and 0
Lesion establishment Ave ([3]; 1 ng/mouse s.c. daily): 100% (4×) and 83.33%
Lesion burden Ave ([3]; 10 ng/mouse s.c. daily): 2.9 mm^2 and 6.7 mm^2 and 11.3 mm^2 and 3.3 mm^2 and 3.5 mm^2
Lesion growth Ave ([3]; 10 ng/mouse s.c. daily): 2.9 mm^2 and 6.7 mm^2 and 11.3 mm^2 and 3.3 mm^2 and 4.2 mm^2
Lesion burden Mean ([3]; 10 ng/mouse s.c. daily): 5.53 mm^2
Lesion establishment Mean ([3]; 10 ng/mouse s.c. daily): 96.67%
Lesion growth Mean ([3]; 10 ng/mouse s.c. daily): 5.72 mm^2
Lesion burden P1 ([3]; 10 ng/mouse s.c. daily): 1.0 mm^2 and 7.3 mm^2 and 12.6 mm^2 and 3.1 mm^2 and 1.1 mm^2
Lesion burden P2 ([3]; 10 ng/mouse s.c. daily): 3.5 mm^2 (2×) and 10.0 mm^2 and 7.0 mm^2 and 2.5 mm^2
Lesion burden P3 ([3]; 10 ng/mouse s.c. daily): 10.9 mm^2 and 4.5 mm^2 and 9.6 mm^2 and 3.5 mm^2 (2×)
Lesion burden P4 ([3]; 10 ng/mouse s.c. daily): 1.0 mm^2 and 6.7 mm^2 and 5.4 mm^2 and 3.0 mm^2 and 0.0 mm^2
Lesion burden P5 ([3]; 10 ng/mouse s.c. daily): 1.0 mm^2 and 7.1 mm^2 and 21.1 mm^2 and 3.5 mm^2 and 4.0 mm^2
Lesion burden P6 ([3]; 10 ng/mouse s.c. daily): 0.2 mm^2 and 4.5 mm^2 and 12.1 mm^2 and 3.1 mm^2 and 9.7 mm^2
Lesion growth M1 ([3]; 10 ng/mouse s.c. daily): 0.95 mm^2 and 7.069 mm^2 and 21.11 mm^2 and 3.464 mm^2 and 3.958 mm^2
Lesion growth M2 ([3]; 10 ng/mouse s.c. daily): 0.196 mm^2 and 4.524 mm^2 and 12.06 mm^2 and 3.142 mm^2 and 9.66 mm^2
Lesion growth P1 ([3]; 10 ng/mouse s.c. daily): 0.95 mm^2 and 7.288 mm^2 and 12.57 mm^2 and 3.142 mm^2 and 1.131 mm^2
Lesion growth P2 ([3]; 10 ng/mouse s.c. daily): 3.464 mm^2 (2×) and 10.02 mm^2 and 7.037 mm^2 and 2.545 mm^2
Lesion growth P3 ([3]; 10 ng/mouse s.c. daily): 10.95 mm^2 and 4.524 mm^2 and 9.621 mm^2 and 3.464 mm^2 (2×)
Lesion growth P4 ([3]; 10 ng/mouse s.c. daily): 0.95 mm^2 and 6.739 mm^2 and 5.372 mm^2 and 2.969 mm^2
Lesion establishment M1 ([3]; 10 ng/mouse s.c. daily): 1
Lesion establishment M2 ([3]; 10 ng/mouse s.c. daily): 1
Lesion establishment P1 ([3]; 10 ng/mouse s.c. daily): 1
Lesion establishment P2 ([3]; 10 ng/mouse s.c. daily): 1
Lesion establishment P3 ([3]; 10 ng/mouse s.c. daily): 1
Lesion establishment P4 ([3]; 10 ng/mouse s.c. daily): 1 (4×) and 0
Lesion establishment Ave ([3]; 10 ng/mouse s.c. daily): 100% (4×) and 83.33%
Lesion burden Ave ([3]; 100 ng/mouse s.c. daily): 11.8 mm^2 and 1.8 mm^2 and 3.2 mm^2 and 3.0 mm^2 and 2.9 mm^2
Lesion growth Ave ([3]; 100 ng/mouse s.c. daily): 11.8 mm^2 and 1.8 mm^2 and 3.2 mm^2 and 3.0 mm^2 and 2.9 mm^2
Lesion burden Mean ([3]; 100 ng/mouse s.c. daily): 4.52 mm^2
Lesion establishment Mean ([3]; 100 ng/mouse s.c. daily): 100.00%
Lesion growth Mean ([3]; 100 ng/mouse s.c. daily): 4.52 mm^2
Lesion burden P1 ([3]; 100 ng/mouse s.c. daily): 7.0 mm^2 and 4.5 mm^2 and 2.8 mm^2 and 2.0 mm^2 and 1.5 mm^2
Lesion burden P2 ([3]; 100 ng/mouse s.c. daily): 18.5 mm^2 and 2.8 mm^2 and 2.3 mm^2 and 3.1 mm^2 and 3.5 mm^2
Lesion burden P3 ([3]; 100 ng/mouse s.c. daily): 11.0 mm^2 and 2.3 mm^2 (2×) and 3.5 mm^2 and 4.9 mm^2
Lesion burden P4 ([3]; 100 ng/mouse s.c. daily): 8.4 mm^2 and 0.2 mm^2 and 3.8 mm^2 and 2.5 mm^2 and 1.8 mm^2
Lesion burden P5 ([3]; 100 ng/mouse s.c. daily): 12.6 mm^2 and 1.0 mm^2 and 7.5 mm^2 and 3.8 mm^2 and 2.0 mm^2
Lesion burden P6 ([3]; 100 ng/mouse s.c. daily): 13.2 mm^2 and 0.3 mm^2 (2×) and 2.8 mm^2 and 3.5 mm^2
Lesion growth M1 ([3]; 100 ng/mouse s.c. daily): 12.57 mm^2 and 0.95 mm^2 and 7.548 mm^2 and 3.801 mm^2 and 2.011 mm^2
Lesion growth M2 ([3]; 100 ng/mouse s.c. daily): 13.2 mm^2 and 0.283 mm^2 (2×) and 2.835 mm^2 and 3.464 mm^2
Lesion growth P1 ([3]; 100 ng/mouse s.c. daily): 7.037 mm^2 and 4.453 mm^2 and 2.827 mm^2 and 2.011 mm^2 and 1.539 mm^2
Lesion growth P2 ([3]; 100 ng/mouse s.c. daily): 18.47 mm^2 and 2.827 mm^2 and 2.27 mm^2 and 3.142 mm^2 and 3.464 mm^2
Lesion growth P3 ([3]; 100 ng/mouse s.c. daily): 11 mm^2 and 2.27 mm^2 (2×) and 3.464 mm^2 and 4.909 mm^2
Lesion growth P4 ([3]; 100 ng/mouse s.c. daily): 8.357 mm^2 and 0.196 mm^2 and 3.801 mm^2 and 2.545 mm^2 and 1.767 mm^2
Lesion establishment M1 ([3]; 100 ng/mouse s.c. daily): 1
Lesion establishment M2 ([3]; 100 ng/mouse s.c. daily): 1
Lesion establishment P1 ([3]; 100 ng/mouse s.c. daily): 1
Lesion establishment P2 ([3]; 100 ng/mouse s.c. daily): 1
Lesion establishment P3 ([3]; 100 ng/mouse s.c. daily): 1
Lesion establishment P4 ([3]; 100 ng/mouse s.c. daily): 1
Lesion establishment Ave ([3]; 100 ng/mouse s.c. daily): 100%
lesion establishment ([3]; range over groups of the model): 97.67%-100%
